According to US20240246964A1 (Arbutus Biopharma Corporation, priority 2021, published 2024):

Tests used:
[1] = biological target: PD-L1 His protein / PD-1 Fc protein (Homo sapiens (Human), UniProt Q9NZQ7); assay: HTRF Assay (PD-1/PD-L1 interaction); assay type: binding; details: PD-L1 His 6 nM, PD-1 Fc 6 nM
[2] = biological target: human PD-L1 (Homo sapiens (Human), UniProt Q9NZQ7); assay: T cell activation luciferase reporter cell culture system (T Cell Activation Assay); assay type: cell-based; details: luciferase reporter assay; PD-L1 aAPC/CHO-K1 cells with PD-1 effector Jurkat T cells
Sequence of human PD-L1 (Q9NZQ7 19-290): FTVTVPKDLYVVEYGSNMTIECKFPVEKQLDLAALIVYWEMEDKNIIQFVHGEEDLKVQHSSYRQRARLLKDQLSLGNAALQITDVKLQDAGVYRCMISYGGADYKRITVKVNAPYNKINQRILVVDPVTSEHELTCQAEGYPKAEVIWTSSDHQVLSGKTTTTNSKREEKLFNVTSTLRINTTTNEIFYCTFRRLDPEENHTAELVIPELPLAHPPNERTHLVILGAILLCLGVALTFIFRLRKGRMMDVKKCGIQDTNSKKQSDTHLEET

Sequence of PD-L1 His protein / PD-1 Fc protein (Q9NZQ7 19-238): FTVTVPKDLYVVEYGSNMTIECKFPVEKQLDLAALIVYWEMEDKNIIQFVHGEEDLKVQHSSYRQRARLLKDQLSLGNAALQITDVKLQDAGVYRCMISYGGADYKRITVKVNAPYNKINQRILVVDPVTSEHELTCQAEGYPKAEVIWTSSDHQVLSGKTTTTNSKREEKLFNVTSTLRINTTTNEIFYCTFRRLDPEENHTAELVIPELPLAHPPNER

Row | SMILES | IC50 [1] | EC50 [2]
1 | COc1cc(-c2nccc(-c3cccc(-c4ccc(C5=NCCN5)c(OC)n4)c3Cl)c2Cl)ccc1CNC[C@@H](O)CC(=O)O [Compound 180, (S)-4-((4-(3-chloro-4-(2-chloro-3-(5-(4,5-dihydro-1H-imidazol-2-yl)-6-methoxypyridin-2-yl)phenyl)pyridine-2-yl)-2-methoxybenzyl)amino)-3-hydroxybutanoic acid] | 0.00564 µM | 0.0359 µM
2 | COc1cc(-c2nccc(-c3cccc(-c4ccc(CNC[C@@H]5CCC(=O)N5)c(OC)n4)c3Cl)c2Cl)cc(F)c1CNC[C@@H]1CCO1 [Compound 181, (S)-5-((((6-(2-chloro-3-(3-chloro-2-(3-fluoro-5-methoxy-4-(((((S)-oxetan-2-yl)methyl)amino)methyl)phenyl)pyridine-4-yl)phenyl)-2-methoxypyridin-3-yl)methyl)amino)methyl)pyridine1335ne-2-one] | 0.0112 µM | 0.0305 µM
3 | COC(=O)C1CN(Cc2nn3cc(-c4nccc(-c5cccc(-c6ccc(CNC[C@@H]7CCC(=O)N7)c(OC)n6)c5Cl)c4Cl)cc3c(=O)n2C)C1 [Compound 182, methyl (S)-1-((6-(3-chloro-4-(2-chloro-3-(6-methoxy-5-((((5-oxopyrrolidin-2-yl)methyl)amino)methyl)pyridine-2-yl)phenyl)pyridine-2-yl)-3-methyl-4-oxo-3,4-dihydropyrrolo[2,1-f][1,2,4]pyridine-2-yl)methyl)azetidine-3-carboxylate] | 0.00246 µM | 0.0387 µM
4 | COc1nc(-c2cccc(-c3ccnc(-c4ccc5c(CNC[C@@H]6CCC(=O)N6)nn(C)c5c4)c3Cl)c2Cl)ccc1CNC[C@@H]1CCC(=O)N1 [Compound 183, (S)-5-((((6-(2-chloro-3-(3-chloro-2-(1-methyl-3-(((((S)-5-oxopyrrolidin-2-yl)methyl)amino)methyl)-1H-indazol-6-yl)pyridine-4-yl)phenyl)-2-methoxypyridin-3-yl)methyl)amino)methyl)pyridine1335ne-2-one] | 0.00295 µM | 0.0449 µM
5 | COc1nc(-c2cccc(-c3ccnc(-c4ccc5c(c4)CCC[C@@H]5NC[C@@H]4CCC(=O)N4)c3Cl)c2Cl)ccc1CNC[C@@H]1CCC(=O)N1 [Compound 184, (S)-5-((((6-(2-chloro-3-(3-chloro-2-((S)-5-((((S)-5-oxopyrrolidin-2-yl)methyl)amino)-5,6,7,8-tetrahydronaphthalen-2-yl)pyridine-4-yl)phenyl)-2-methoxypyridin-3-yl)methyl)amino)methyl)pyridine1335ne-2-one] | 0.0155 µM | 0.0804 µM
6 | COc1nc(-c2cccc(-c3ccnc(-c4ccc5c(c4)CCC[C@H]5NC[C@@H]4CCC(=O)N4)c3Cl)c2Cl)ccc1CNC[C@@H]1CCC(=O)N1 [Compound 185, (S)-5-((((6-(2-chloro-3-(3-chloro-2-((R)-5-((((S)-5-oxopyrrolidin-2-yl)methyl)amino)-5,6,7,8-tetrahydronaphthalen-2-yl)pyridine-4-yl)phenyl)-2-methoxypyridin-3-yl)methyl)amino)methyl)pyridine1335ne-2-one] | 0.0101 µM | 0.0193 µM
7 | COc1cc(-c2nccc(-c3cccc(-c4ccc5c(OC)c(CNC[C@H](C)O)cc(Cl)c5n4)c3Cl)c2Cl)ccc1CNC[C@@H]1CCC(=O)N1 [Compound 206, (S)-5-(((4-(3-chloro-4-(2-chloro-3-(8-chloro-6-((((S)-2-hydroxypropyl)amino)methyl)-5-methoxyquinolin-2-yl)phenyl)pyridin-2-yl)-2-methoxybenzyl)amino)methyl)pyrrolidin-2-one] | 0.000856 µM | 0.182 µM
8 | COc1cc(-c2nccc(-c3cccc(-c4ccc5c(OC)c(CNC[C@@H]6CCC(=O)N6)cc(Cl)c5n4)c3Cl)c2Cl)ccc1CNC[C@@H]1CCC(=O)N1 [Compound 207, (S)-5-((((8-chloro-2-(2-chloro-3-(3-chloro-2-(3-methoxy-4-(((((S)-5-oxopyrrolidin-2-yl)methyl)amino)methyl)phenyl)pyridin-4-yl)phenyl)-5-methoxyquinolin-6-yl)methyl)amino)methyl)pyrrolidin-2-one] | 0.00766 µM | 0.118 µM
9 | COc1nc(-c2cccc(-c3ccnc(-c4cc(Cl)c5c(c4)CCN(CCC(C)(C)O)C5)c3Cl)c2Cl)ccc1CNC[C@@H]1CCC(=O)N1 [Compound 208, (S)-5-((((6-(2-chloro-3-(3-chloro-2-(8-chloro-2-(3-hydroxy-3-methylbutyl)-1,2,3,4-tetrahydroisoquinolin-6-yl)pyridin-4-yl)phenyl)-2-methoxypyridin-3-yl)methyl)amino)methyl)pyrrolidin-2-one] | 0.00805 µM | 0.082 µM
10 | COc1cc(-c2nccc(-c3cccc(-c4ccc(C5=NCCN5)c(OC)n4)c3Cl)c2Cl)ccc1CNC[C@@H](O)CC(=O)OC(C)C [Compound 209, isopropyl (S)-4-((4-(3-chloro-4-(2-chloro-3-(5-(4,5-dihydro-1H-imidazol-2-yl)-6-methoxypyridin-2-yl)phenyl)pyridin-2-yl)-2-methoxybenzyl)amino)-3-hydroxybutanoate] | 0.0228 µM | ≥ 10 µM
11 | COc1cc(-c2nccc(-c3cccc(-c4ccc(CNC[C@@H]5CCC(=O)N5)c(OC)n4)c3Cl)c2Cl)cc(F)c1CNC1CC2(C1)CN(C(C)=O)C2 [Compound 210, (S)-5-((((6-(3-(2-(4-(((2-acetyl-2-azaspiro[3.3]heptan-6-yl)amino)methyl)-3-fluoro-5-methoxyphenyl)-3-chloropyridin-4-yl)-2-chlorophenyl)-2-methoxypyridin-3-yl)methyl)amino)methyl)pyrrolidin-2-one] | 0.00212 µM | 0.0266 µM
12 | CNCc1ccc(-c2cccc(-c3ccnc(-c4ccc(CNC(C)C)c(OC)c4)c3Cl)c2Cl)nc1OC [Compound 211, N-(4-(3-chloro-4-(2-chloro-3-(6-methoxy-5-((methylamino)methyl)pyridin-2-yl)phenyl)pyridin-2-yl)-2-methoxybenzyl)propan-2-amine] | 0.0042 µM | 0.0562 µM
13 | CNCc1ccc(-c2cccc(-c3ccnc(-c4ccc(CNC5CCN(C(C)=O)CC5)c(OC)c4)c3Cl)c2Cl)nc1OC [Compound 212, 1-(4-((4-(3-chloro-4-(2-chloro-3-(6-methoxy-5-((methylamino)methyl)pyridin-2-yl)phenyl)pyridin-2-yl)-2-methoxybenzyl)amino)piperidin-1-yl)ethan-1-one] | 0.00272 µM | 0.0206 µM
14 | CNCc1ccc(-c2cccc(-c3ccnc(-c4ccc(CN5CC6(CNC(=O)C6)C5)c(OC)c4)c3Cl)c2Cl)nc1OC [Compound 213, 2-(4-(3-chloro-4-(2-chloro-3-(6-methoxy-5-((methylamino)methyl)pyridin-2-yl)phenyl)pyridin-2-yl)-2-methoxybenzyl)-2,6-diazaspiro[3.4]octan-7-one] | 0.00273 µM | 0.0235 µM
15 | COc1cc(-c2nccc(-c3cccc(-c4ccc(CNC[C@H](C)O)c(OC)n4)c3Cl)c2Cl)cc2c1CN(C[C@H](C)O)CC2 [Compound 214, (S)-1-(((6-(2-chloro-3-(3-chloro-2-(2-((S)-2-hydroxypropyl)-8-methoxy-1,2,3,4-tetrahydroisoquinolin-6-yl)pyridin-4-yl)phenyl)-2-methoxypyridin-3-yl)methyl)amino)propan-2-ol] | 0.00431 µM | 0.027 µM
16 | COc1cc(-c2nccc(-c3cccc(-c4ccc(CN[C@H]5C[C@](C)(O)C5)c(OC)n4)c3Cl)c2Cl)cc2c1CN(C[C@H](C)O)CC2 [Compound 215, (1r,3r)-3-(((6-(2-chloro-3-(3-chloro-2-(2-((S)-2-hydroxypropyl)-8-methoxy-1,2,3,4-tetrahydroisoquinolin-6-yl)pyridin-4-yl)phenyl)-2-methoxypyridin-3-yl)methyl)amino)-1-methylcyclobutan-1-ol] | 0.00558 µM | 0.0255 µM
17 | COc1cc(-c2nccc(-c3cccc(-c4ccc(CNC[C@@H]5CCCO5)c(OC)n4)c3Cl)c2Cl)cc2c1CN(C[C@H](C)O)CC2 [Compound 216, (S)-1-(6-(3-chloro-4-(2-chloro-3-(6-methoxy-5-(((((S)-tetrahydrofuran-2-yl)methyl)amino)methyl)pyridin-2-yl)phenyl)pyridin-2-yl)-8-methoxy-3,4-dihydroisoquinolin-2(1H)-yl)propan-2-ol] | 0.00451 µM | 0.271 µM
18 | COc1cc(-c2nccc(-c3cccc(-c4ccc(CN5CC(C)(O)C5)c(OC)n4)c3Cl)c2Cl)cc2c1CN(C[C@H](C)O)CC2 [Compound 217, (S)-1-((6-(2-chloro-3-(3-chloro-2-(2-(2-hydroxypropyl)-8-methoxy-1,2,3,4-tetrahydroisoquinolin-6-yl)pyridin-4-yl)phenyl)-2-methoxypyridin-3-yl)methyl)-3-methylazetidin-3-ol] | 0.00201 µM | 0.0382 µM
19 | COC(=O)CNCc1ccc(-c2cccc(-c3ccnc(-c4cc5c(c(OC)c4)CN(C[C@H](C)O)CC5)c3Cl)c2Cl)nc1OC [Compound 218, methyl (S)-((6-(2-chloro-3-(3-chloro-2-(2-(2-hydroxypropyl)-8-methoxy-1,2,3,4-tetrahydroisoquinolin-6-yl)pyridin-4-yl)phenyl)-2-methoxypyridin-3-yl)methyl)glycinate] | 0.00712 µM | 0.601 µM
20 | COc1cc(-c2nccc(-c3cccc(-c4ccc5c(CN6CC7(CNC(=O)C7)C6)cn(C)c5n4)c3Cl)c2Cl)ccc1CNC[C@@H]1CCC(=O)N1 [Compound 219, (S)-2-((6-(2-chloro-3-(3-chloro-2-(3-methoxy-4-((((5-oxopyrrolidin-2-yl)methyl)amino)methyl)phenyl)pyridin-4-yl)phenyl)-1-methyl-1H-pyrrolo[2,3-b]pyridin-3-yl)methyl)-2,6-diazaspiro[3.4]octan-7-one] | 0.00273 µM | 0.0222 µM
21 | CNCc1ccc(-c2cccc(-c3ccnc(-c4ccc(CNC[C@@H](O)CC(=O)O)c(OC)c4)c3Cl)c2Cl)nc1OC [Compound 220, (S)-4-((4-(3-chloro-4-(2-chloro-3-(6-methoxy-5-((methylamino)methyl)pyridin-2-yl)phenyl)pyridin-2-yl)-2-methoxybenzyl)amino)-3-hydroxybutanoic acid] | 0.00218 µM | 0.0761 µM
